Measured values reported in patent publication US20080293727A1, “Novel sulfonamide inhibitors of aspartyl protease” (priority 1992, published 2008).
Read-outs that look alike come from different tables or passages of the source.

Experiments:
[1] = system: HIVIIIb in CCRM-CEM cells; test: Anti-viral potency in CCRM-CEM cells acutely infected with HIVIIIb, extracellular p24 antigen readout (method of Meek et al.); assay type: cell-based, HIV-1
Method: Compounds of formula I were tested for their antiviral potency in several virological assays.
The effect of the compounds on inhibiting the replication of the virus was measured by determining the HIV extracellular p24 antigen concentration using a commercial enzyme immunoassay (obtained from Coulter Corporation, Hialeah, Fla.).
In Table VIII, the following classifications have been employed: • A: inhibits HIV replication at concentration of 100 nM or less. • B: inhibits HIV replication at concentration of between 101 and 1,000 nM. • C: inhibits HIV replication at a concentration of between 1,001 and 10,000 nM. • D: inhibits HIV replication at a concentration of between 10,001 and 40,000 nM. • ND: not tested.

[2] = molecular target: HIV-1 protease (Human immunodeficiency virus type 1 group M subtype B, UniProt P04585); test: Inhibition constants against HIV-1 protease (method of Pennington et al.); assay type: biochemical
From the text: We measured the inhibition constants of the compounds listed in Table VII against HIV-1 protease using the above-cited method of Pennington et al.

[3] = CCRM-CEM cells, HIV replication, read-out: IC90 Range
[4] = HIV-1 protease, read-out: Ki value
[5] = Human immunodeficiency virus 1, read-out: IC90 Range

Row | SMILES | IC90 ([1]; Human immunodeficiency virus 1, CCRM-CEM cells, HIV replication, read-out: IC90 Range) [nM] | Ki [2] [nM] | IC90 [1, 3] [nM] | Ki [2, 4] [nM] | IC90 [1, 5] [nM]
1 | Nc1ccc(S(=O)(=O)N(CC2CCCC2)C[C@@H](O)[C@H](Cc2ccccc2)NC(=O)O[C@H]2CCOC2)cc1N [Compound 1015] | < 100 | 19 | – | – | –
2 | CC(C)CN(CC(O)[C@H](Cc1ccccc1)NC(=O)O[C@@H]1CCOC1)S(=O)(=O)c1ccc(F)cc1 (stereo partly drawn) [Compound 52, 4-Fluoro-N-((2 syn,3S)-2-hydroxy-4-phenyl-3-((R)-tetrahydrofuran-3-yloxycarbonylamino)-butyl)-N-isobutyl-benzenesulfonamide and 4-Fluoro-N-((2 syn,3S)-2-hydroxy-4-phenyl-3-((R)-tetrahydrofuran-3-yloxycarbonylamino)-butyl)-N-isobutyl-benzenesulfonamide] | – | – | 101 to 1000 | 0.4 | –
3 | CC(=O)Nc1ccc(S(=O)(=O)N(CC(C)C)CC(O)C(Cc2ccccc2)NC(=O)OC2CCOC2)cc1 [Compound 86, N-(4-(((2 syn,3S)-2-Hydroxy-4-phenyl-3-((R)-tetrahydrofuran-3-yloxycarbonylamino)-butyl)-isobutyl-sulfamoyl-phenyl)-acetamide and N-(4-(((2 syn,3S)-2-Hydroxy-4-phenyl-3-((S)-tetrahydrofuran-3-yloxycarbonylamino)-butyl)-isobutyl-sulfamoyl)-phenyl)-acetamide] | – | – | – | 5 | 101 to 1000
4 | CC(C)CN(C[C@@H](O)[C@H](Cc1ccccc1)NC(=O)OC(C)(C)C)S(=O)(=O)c1ccccc1F [Compound 47] | – | – | – | 4 | 1000 to 10000
5 | CC(C)CN(C[C@@H](O)[C@H](Cc1ccccc1)NC(=O)C(CC(N)=O)C(=O)OCc1ccccn1)S(=O)(=O)c1ccc(F)cc1 (stereo partly drawn) [Compound 26, N-1-(3-((4-Fluoro-benzenesulfonyl)-isobutyl-amino)-(1S,2 syn)-1-benzyl-2-hydroxy-propyl)-2-(pyridin-2-yl-methoxycarbonyl)-succinamide] | – | – | 101 to 1000 | 0.1 | –
6 | CC(C)CN(CC(O)C(Cc1ccccc1)NC(=O)OCC1CCOC1)S(=O)(=O)c1ccc(Cl)c(Cl)c1 (stereo not drawn) [Compound 85] | – | – | – | 4 | 1000 to 10000
7 | CC(C)CN(CC(O)[C@H](Cc1ccccc1)NC(=O)[C@H](CC(N)=O)NC(=O)c1ccc2ccccc2n1)S(=O)(=O)c1ccc(-c2ccccn2)s1 (stereo partly drawn) [Compound 12, (S)-N-1-(1-(S)-Benzyl-2-(syn)-hydroxyl-3-(isobutyl-(5-pyridin-2-yl-thiophene-2-sulfonyl)-amino)-propyl)-2-((quinoline-2-carbonyl)-amino)-succinamide] | – | – | < 100 | 0.1 | –
8 | CCC(C)C(NC(=O)OCc1ccccc1)C(=O)NC(Cc1ccccc1)C(O)CN(CC(C)C)S(=O)(=O)c1ccc(F)c(NC(C)=O)c1 [Compound 187, Benzyloxycarbonyl-(L)-isoleucine-N-(5-((3-amino-(2 syn,3S)-2-hydroxy-4-phenyl-butyl)-isobutyl-sulfamoyl)-2-fluoro-phenyl)-acetamide] | – | – | – | 0.3 | 101 to 1000
9 | CCC(C)C(NC(=O)c1cnc2ccccc2n1)C(=O)NC(Cc1ccccc1)C(O)CN(CC(C)C)S(=O)(=O)c1ccc(F)c(NC(C)=O)c1 (stereo not drawn) [Compound 188] | – | – | – | 11.5 | 1000 to 10000
